The values below come from ChEMBL document CHEMBL5223079, “Progress toward B-Cell Lymphoma 6 BTB Domain Inhibitors for the Treatment of Diffuse Large B-Cell Lymphoma and Beyond” (J Med Chem, 2021).

Series [1] is described as follows: Aqueous solubility of the compound. The series is classed as physicochemical. Particulars: buffer.
The nature of series [2]: Plasma clearance in Balb/C mouse at 1 mg/kg, po or 5 mg/kg, iv. Type of series: ADME, organism-based. Particulars: in vivo.
Series [3] relates to SUD4. Put plainly: cells. Particulars: Homo sapiens, SU-DHL-4.
Description: Antiproliferative activity against BCL-6 dependent human SU-DHL-4 cells by CCK-8 assay
In series [4] the test system is SUD4. The series is described as follows: Antitumor activity against human SU-DHL-4 cells xenografted in mouse assessed as reduction in tumor volume at 5 mg/kg, iv treated every other day for 3 days. The series is classed as functional. Details: scale not given: the % may be the effect or the level left. Particulars: time 3 day.
Another series has as its system OCI-Ly7. The series is described as follows: cells. The following applies: Homo sapiens.
Series [5] in a line: Intrinsic clearance in mouse microsomes. The series is classed as ADME, Microsome.
In series [6] the test system is SUD4. The series is described as follows: Decrease in number of living cells in human SUDHL4 cells at […] incubated for 48 hrs by EdU flow cytometry assay (reference value: 48%). Details: scale not given: the % may be the effect or the level left. The following applies: dose 2.5 µM.
The test system of series [7] is SUD4. The series is described as follows: Antitumor activity against CXCR4 human SU-DHL-4 cells xenografted in mouse assessed as increase in mRNA expression at 5 mg/kg, administered daily for 3days by RT-PCR analysis. The series is classed as functional.
The nature of series [8]: Intrinsic clearance in mouse liver. The series is classed as ADME, tissue-based. The following applies: read-out: CLH.
The next series relates to Farage. Put plainly: cells. The following applies: Homo sapiens.
Series [9] has as its system SUD4. The series is described as follows: Decrease in number of living cells in human SUDHL4 cells at 0.625 uM incubated for 48 hrs by flow cytometry (reference value: 48%). Also on record: scale not given: the % may be the effect or the level left.
The nature of series [10]: Metabolic stability in human liver microsome assessed as half life. The series is classed as ADME. The following applies: liver microsomes.
A further series deals with DOHH-2. Put plainly: cells. Particulars: Homo sapiens.
The subject of series [11] is SUD4. Put plainly: Antitumor activity against human SU-DHL-4 cells xenografted in mouse assessed as reduction in tumor weight at 5 mg/kg, iv treated every other day for 3 days. The series is classed as functional. Details: scale not given: the % may be the effect or the level left. Particulars: time 3 day.
A further series has as its system Toledo. Put plainly: cells. The following applies: Homo sapiens.
Series [12] deals with SUD4. The series is described as follows: Antitumor activity against CD69 human SU-DHL-4 cells xenografted in mouse assessed as increase in mRNA expression at 5 mg/kg, administered daily for 3days by RT-PCR analysis. The series is classed as functional.
For series [13], the system named is SUD4. The series is described as follows: Antitumor activity against ATR human SU-DHL-4 cells xenografted in mouse assessed as increased in mRNA expression at 5 mg/kg, administered daily for 3days by RT-PCR analysis. The series is classed as functional.
Series [14] deals with SUD4. Put plainly: Decrease in number of living cells in human SUDHL4 cells at 1.25 uM incubated for 48 hrs by EdU flow cytometry assay (reference value: 48%). Details: scale not given: the % may be the effect or the level left.
Series [15] in a line: Oral bioavailability in SCID mouse plasma at 10 mg/kg. Type of series: ADME, organism-based. Details: dose 10 mg/kg, route po.
A short description of series [16]: Oral bioavailability in SCID mouse plasma at 100 mg/kg. Type of series: ADME, organism-based.
The target in series [17] is B-cell lymphoma 6 protein (Homo sapiens, UniProt P41182). Put plainly: Inhibition of human BCL6 […] domain.
In another series the target is BCL-6/NCOR2 (Homo sapiens, UniProt P41182). The series is described as follows: Inhibition of BCL6/SMRT protein protein interaction (unknown origin) by TR-FRET assay.

Values after ≈ are worked out from the molar mass of the structure shown.

Description for DOHH-2: Antiproliferative activity against BCL-6 dependent human DOHH-2 cells by CCK-8 assay
Description for Farage: Antiproliferative activity against BCL-6 dependent human Farage cells by CCK-8 assay
Description for OCI-Ly7: Antiproliferative activity against BCL-6 dependent human OCILY7 cells by CCK-8 assay
Description for Toledo: Antiproliferative activity against BCL-6 independent human Toledo cells by CCK-8 assay

`N#Cc1c(NCc2ccccc2)ccnc1Cl`: the solubility in [1] was 60 µM (≈ 14.6 µg/mL).
For `C[C@@H]1CN(c2ncc(Cl)c(Nc3ccc4c(c3)n(CCC(C)(C)O)c(=O)n4C)n2)C[C@H](C)C1(F)F`, the clearance in series [2] was 1.2 L/h/kg.
`N#Cc1c(NCC2CC2)ccnc1Cl` yielded a solubility in series [1] of 300 µM (≈ 62.3 µg/mL).
As to `Cn1c(=O)n(C)c2cc(Nc3ncccc3C#N)ccc21`, in series [1], the concentration in solution (solubility) came to 300 µM (≈ 83.8 µg/mL).
On to `COc1cc(Nc2nc(N3C[C@@H](C)N[C@@H](C)C3)ncc2F)ccc1NC(=O)c1ccc(C2=CCCC2)s1`, for which the IC50 with SUD4 [3] was found to be 1 µM; in the series on OCI-Ly7, 1 µM; in the series on Farage it was 1 µM; in the series with DOHH-2, 1 µM; with Toledo, 3.3 µM. For the same compound, the Activity in the series with SUD4 [4] was 60%; in the series on SUD4 [6], 6.6%; in the series with SUD4 [7] it was above 60%; in the series with SUD4 [9], 27%; in the series with SUD4 [11], 70%; in the series with SUD4 [12], above 150%. The Activity is above 200% in the series on SUD4 [13] and 13% in the series with SUD4 [14]. Moreover, the microsomal CLint in [5] is below 9.6 µL/min/mg. The CLint scaled in series [8] is below 2.28 L/h/kg. In series [10], the half-life is above 1 h.
`Cn1c(=O)n(C)c2cc(Nc3cc(SCc4ccccc4)ncn3)ccc21`: in series [1], the solubility was below 30 µM.
In series [15], `CNC(=O)COc1cc2cc(Nc3nc(N4C[C@H](C)C[C@H](C)C4)ncc3Cl)ccc2n(C)c1=O` came in with an AUC of 1860 nM·h and a Cmax of 0.193 µM. The compound further yielded a Cmax in [16] of 0.599 µM. The IC50 in [17] was at most 0.003 µM.
For `CNC(=O)COc1cc2cc(Nc3nc(N4CCC(C(=O)N(C)C)CC4)ncc3Cl)cc(OC)c2n(C)c1=O`, the IC50 in [17] is at most 0.003 µM.
In turn, `COc1ccc(Nc2nc(NCC(C)C)ncc2F)cc1Cl` registered an IC50 on BCL-6/NCOR2 of 19 µM.
